Assay results from US20240091303A1, “BIOMARKER-BASED TREATMENT OF FOCAL SEGMENTAL GLOMERULOSCLEROSIS AND DIABETIC KIDNEY DISEASE” (Goldfinch Bio, Inc., priority 2019, published 2024).

Experiments:
ZDSD rats = assay: ZDSD model of diabetic nephropathy, albuminuria; format: in vivo, rat
Description: The aim of this study was to evaluate the effects of the TRCPS inhibitor, Compound 1, to attenuate the development and/or progression of albuminuria in ZDSD model of diabetic nephropathy (DN).
The ZDSD model is an established model which recapitulates the major features of diabetes including impaired glucose metabolism, neuropathy, retinopathy and nephropathy [Peterson et al., “Characterization of the ZDSD Rat: A Translational Model for the Study of Metabolic Syndrome and Type 2 Diabetes,” J. Diabetes. Res. (2015), Article ID 487816, 10 pages; Peterson et aL, “The ZDSD rat: a novel model of diabetic nephropathy,” Am. J. Transl. Res. (2017) 9: 4236-4249].
Male ZDSD rats (Crown Bioscience, Indianapolis, IN., n=79) were maintained on standard rodent chow (Purina 5008) from weaning to 15 weeks of age. A diabetogenic diet (Research Diet D124668) was initiated and maintained for three weeks to synchronize development of hyperglycemia. Diabetogenic diet was replaced with Purina 5008 for remainder of the study. Animals were housed two per cage and maintained on a 12 hour light cycle (0600-1800). Room temperature was monitored daily and maintained at 70-74° F. Food and water were provided ad libitum for duration of the study. […]
Body weight was recorded weekly. Food consumption was recorded weekly during the treatment phase from week 0 through 12. […]

[1] = system: DOCA-salt hypertensive rats; assay: Effects of Compound 1 in DOCA-salt hypertensive rats (albuminuria); format: in vivo, Sprague Dawley rats; settings: for urinary albumin excretion: week 2 to week 4, FIG. 7
Description: The aim of this study was to evaluate the effects of the TRCPS inhibitor, Compound 1, to attenuate the development and/or progression of albuminuria in deoxycorticosterone acetate (DOCA)-salt hypertensive rats.
(§1) The DOCA-salt hypertensive rat model is a well-established model of mineralocorticoid hypertension with renal dysfunction leading to an FSGS phenotype, characterized by increased levels of urinary protein and albumin excretion. [Schenk et al., “The pathogenesis of DOCA-salt hypertension,” J. Pharmacol. Toxicol. Methods (May 1992) 27 (3):161-170; Gomez-Sanchez et al., “Mineralocorticoids, salt and high blood pressure,” Steroids (1996) 61:184-188.]
Six to seven weeks old Sprague Dawley rats were unilaterally nephrectomized; after one-week recovery, rats were implanted with a DOCA pellet (45 mg) and provided tap water containing 0.9% NaCl and 0.2% KCl (Day 1) for a 4 weeks treatment. On Day 1, DOCA-salt rats received one daily dose of Compound 1 administered by oral gavage at 3 mg/kg or 10 mg/kg for 4 weeks; control animals for DOCA treatment were administered vehicle. Sham animals, implanted with a silicone-water pellet, were given tap water and received oral administration of the vehicle. Body weight was recorded daily and proteinuria, albuminuria and arterial blood pressure were recorded every week.

[2] = system: Rac1 protein in the urine; assay: Urinary Rac1 analysis in naive rats following treatment with Compound 1; format: in vivo, Sprague Dawley rats; settings: 10 mg/kg oral gavage once daily for 7 days
Description: The aim of this study was to measure the amount of Rac1 protein in the urine of healthy rats treated with Compound 1.
Six to seven weeks old Sprague Dawley rats were placed in metabolic cage housing for urine collection. Following two 24-hour periods of pre-dose urine collection, received one daily dose of Compound 1 administered by oral gavage at 10 mg/kg for 7 days; control animals were administered vehicle. Urine was collected for 24-hour periods beginning on the day of dosing inception and on days 3 and 6 of dosing.
Urine samples were concentrated as follows: 20 mL of urine was spun at 1500×g for 5 min to remove cell debris. Samples were concentrated using a Pierce protein concentrator with 10 kDa MWCO (Cat# 88516, Thermo Scientific, USA) and spun at 6000×g for 30 min at 4° C. using rotor JA 14.50 (Beckman Coulter, USA) in an AVANTI-JE centrifuge, (Beckman Coulter). A second centrifugation at 6000×g for 30 min at 4° C. was performed for samples that were concentrated to a volume that was >1 mL, to achieve a volume of <1 mL for all samples. The concentrated urine was collected and stored in −80° C. Next, the samples were analyzed for urinary Rac1 by ELISA (Cat# abx253084, Abbexa Ltd, UK) and urinary creatinine by ELISA (Cat# ab65340, Abcam, USA) following standard procedures according to the manufacturer's instructions. […]

[3] = system: Rac1 protein in the urine; assay: Urinary Rac1 analysis in healthy human subjects following treatment with Compound 1 (Phase 1, NCT03970122); format: in vivo
Description: The aim of this study was to measure the amount of Rac1 protein in the urine of healthy human subjects treated with Compound 1.
Healthy human subjects enrolled in a Phase 1 clinical study, “A First-In-Human, Phase 1, Placebo-Controlled Study to Evaluate the Safety, Tolerability, and Pharmacokinetics of Compound 1, a TRPC5 Channel Inhibitor, in Healthy Subjects and Subjects With Renal Impairment,” (NCT03970122) were administered a single, oral dose of either a placebo or 20 mg Compound 1 as a tablet. A urine sample was collected prior to administration of drug, and urine pools were then collected from 0-4 hours, 4-8 hours, 8-12 hours, 12-24 hours, 24-48 hours and 48-72 hours after dosing.
For Rac1 analysis, urine samples were concentrated as follows: 20 mL of urine was spun at 1500×g for 5 min to remove cell debris. Samples were concentrated using a Pierce protein concentrator with 10 kDa MWCO (Cat# 88516, Thermo Scientific, USA) and spun at 6000×g for 30 min at 4° C. using rotor JA 14.50 (Beckman Coulter, USA) in an AVANTI-JE centrifuge, (Beckman Coulter). A second centrifugation at 6000×g for 30 min at 4° C. was performed for samples that were concentrated to a volume that was >1 mL, to achieve a volume of <1 mL for all samples. The concentrated urine was collected and stored in −80° C. Next, the samples were analyzed for urinary Rac1 by ELISA (Cat# abx253084, Abbexa Ltd, UK) and urinary creatinine by ELISA (Cat# ab65340, Abcam, USA) following standard procedures according to the manufacturer's instructions. The amount of Rac1 in the urine was normalized to the amount of creatinine in the urine to control for the volume of urine produced.
Additional data was obtained from human subjects that were administered a single, oral dose of either a placebo, 5 mg of Compound 1 as a liquid suspension or 20, 40 or 80 mg of Compound 1 as tablets. A urine sample was collected prior to administration of drug, and urine pools were then collected from 0-4 hours, 4-8 hours, 8-12 hours, 12-24 hours, and for each 24 hour period from day 2 through day 7 after dosing. Each dose level comprised 2 placebo and 8 treated subjects.

[4] = system: Rac1 protein in the urine; assay: Urinary Rac1 analysis in DOCA-salt hypertensive rats following treatment with Compound 1; format: in vivo, Sprague Dawley rats
Description: The aim of this study was to measure the amount of Rac1 protein in the urine of DOCA-salt hypertensive rats treated with Compound 1.
as §1
Six to seven weeks old Sprague Dawley rats were unilaterally nephrectomized. After one-week recovery, rats were implanted with a DOCA pellet (45 mg) and provided tap water containing 0.9% NaCl and 0.2% KCl (Day 1) for a 4 weeks treatment. […] Body weight was recorded daily throughout the study. […] Urine was collected for 24-hour periods beginning on day 17, day 20, day 24 and day 27, and urine protein and albumin were measured using standard methods.
For Rac1 analysis, urine samples were concentrated as follows: 20 mL of urine was spun at 1500×g for 5 min to remove cell debris. […] Next, the samples were analyzed for urinary Rac1 by ELISA (Cat# abx253084, Abbexa Ltd, UK) and urinary creatinine by ELISA (Cat# ab65340, Abcam, USA) following standard procedures according to the manufacturer's instructions. […]

COL4A4 knockout mice = assay: Effects of Compound 1 in COL4A4 knockout mice (Alport model); format: in vivo, mouse; settings: 3 mg/kg or 10 mg/kg oral gavage once daily for 4 weeks, FIG. 8
Description: The aim of this study was to evaluate the effects of the TRCPS inhibitor, Compound 1, to attenuate the development and/or progression of albuminuria in […] knockout mice.
The COL4A4 knockout mouse model is a well-established model of Alport disease, characterized by increased levels of urinary protein and albumin excretion. [Korstanje et al., “A mouse Col4a4 mutation causing Alport glomerulosclerosis with abnormal collagen α3α4α5(IV) trimers,” Kidney Int. (2014) 85:1461-1468].
Four to five weeks old COL4A4 knockout mice were received one daily dose of Compound 1 administered by oral gavage at 3 mg/kg or 10 mg/kg for 4 weeks; control animals were administered vehicle. Body weight was recorded daily and urinary protein and creatinine were recorded every week, and the ratio of urine protein to creatinine (UPCR) was calculated.

[5] = system: DOCA-salt hypertensive rats; assay: Effects of Compound 3 in DOCA-salt hypertensive rats (albuminuria), eplerenone control; format: in vivo, Sprague Dawley rats
Description: The aim of this study was to evaluate the effects of the TRCPS inhibitor, Compound 3, to attenuate the development and/or progression of albuminuria in deoxycorticosterone acetate (DOCA)-salt hypertensive rats.
Six to seven weeks old Sprague Dawley rats were unilaterally nephrectomized; after one-week recovery, rats were implanted with a DOCA pellet (45 mg) and provided tap water containing 0.9% NaCl and 0.2% KCl (Day 1) for a 4 weeks treatment. On Day 1, DOCA-salt rats received one daily dose of Compound 3 administered by oral gavage at 30 mg/kg for 4 weeks; control animals for DOCA treatment were administered vehicle or the mineralocorticoid receptor antagonist (MCRA) eplerenone by twice-daily oral gavage at 50 mg/kg. Sham animals, implanted with a silicone-water pellet, were given tap water and received SC administration of the vehicle. Body weight was recorded daily and proteinuria, albuminuria and arterial blood pressure were recorded every week.

[6] = system: DOCA-salt hypertensive rats; assay: Effects of cyclosporine A and tacrolimus in DOCA-salt hypertensive rats (albuminuria); format: in vivo, Sprague Dawley rats; design: urinary albumin excretion: dose or concentration left out as unconfirmed
Description: The DOCA-salt hypertensive rat model is a well-established model of mineralocorticoid hypertension with renal dysfunction leading to an FSGS phenotype, characterized by increased levels of urinary protein and albumin excretion. [Schenk et al., “The pathogenesis of DOCA-salt hypertension,” J. Pharmacol. Toxicol.
Six to seven weeks old Sprague Dawley rats were unilaterally nephrectomized; after one-week recovery, rats were implanted with a DOCA pellet (45 mg) and provided tap water containing 0.9% NaCl and 0.2% KCl (Day 1) for a 3 weeks treatment. […] Sham animals, implanted with a silicone-water pellet, were given tap water and received administration of the vehicle. Proteinuria and albuminuria were recorded every week, and body weight was recorded daily.

## O=c1[nH]ncc(N2CCc3c(ncnc3Oc3ccc(F)cc3C(F)(F)F)C2)c1Cl [Compound 1]
ZDSD rats; 3 mg/kg and 10 mg/kg oral gavage daily for 12 weeks, vs vehicle group, last two weeks of study
  body weight: increase in body weight
ZDSD rats; 3 or 10 mg/kg/d oral gavage 12 weeks, week 6 to week 12, significance at weeks 10 to 12 vs vehicle (p<0.001), FIG. 6
  urinary albumin excretion: attenuated urinary albumin excretion
[1]; 3 mg/kg oral daily, significant at week 3 vs DOCA-vehicle (p<0.05)
  urinary albumin excretion: attenuated urinary albumin excretion
[1]; 10 mg/kg oral daily, vs DOCA-vehicle, p<0.05 week 2, p<0.001 weeks 3 and 4
  urinary albumin excretion: attenuated urinary albumin excretion
[1]; DOCA vs DOCA and Compound 1, 3 or 10 mg/kg oral daily 4 weeks
  body weight: no significant difference
[1]; DOCA-salt rats, 3 or 10 mg/kg oral gavage once daily for 4 weeks
  adverse effects: No adverse effects were observed
[2]
  adverse effects: No adverse effects were observed
[2]; vs pre-dose levels, significance at day 4 (p<0.01), FIG. 2
  urinary Rac1 levels (Rac1 normalized to creatinine): reduced urinary Rac1 levels
[3]; healthy humans, single oral 20 mg tablet, vs pre-dose, significance by 8-12 hours after dosing (p<0.05), FIG. 4
  urinary Rac1 levels (Rac1 normalized to creatinine): reduced urinary Rac1 levels
[3]; humans, single 40 mg oral dose
  time urinary Rac1 levels remained reduced: up to 4 days
[3]; humans, single 80 mg oral dose
  time urinary Rac1 levels remained reduced: at least 7 days
[3]; humans, single oral dose 5 mg suspension or 20, 40, 80 mg tablets, significance by 8-12 hours with 40 mg and 80 mg doses vs pre-dose (p<0.05), FIG. 4B
  urinary Rac1 levels: reduced urinary Rac1 levels
[4]; 10 mg/kg oral gavage once daily for 7 days from day 21
  adverse effects: No adverse effects were observed
[4]; 10 mg/kg oral gavage once daily for 7 days from day 21, vs pre-dose levels, significance day 25 (p<0.01), FIG. 3
  urinary Rac1 levels (Rac1 normalized to creatinine): reduced urinary Rac1 levels
COL4A4 knockout mice
  urinary protein to creatinine ratio (UPCR): no effect

## COC(=O)[C@@H]1CC2=CC(=O)CC[C@]2(C)[C@@]23O[C@@H]2C[C@@]2(C)[C@@H](CC[C@@]24CCC(=O)O4)[C@H]13 [eplerenone]
[5]; DOCA vs DOCA plus Compound 3 (30 mg/kg oral daily) or eplerenone (50 mg/kg oral twice daily)
  body weight: no significant difference
[5]; eplerenone 50 mg/kg twice-daily oral gavage, week 4 vs DOCA-vehicle (p<0.05), FIG. 10
  urinary albumin excretion: significantly attenuated urinary albumin excretion

## C=CC[C@@H]1/C=C(\C)C[C@H](C)C[C@H](OC)[C@H]2O[C@@](O)(C(=O)C(=O)N3CCCC[C@H]3C(=O)O[C@H](/C(C)=C/[C@@H]3CC[C@@H](O)[C@H](OC)C3)[C@H](C)[C@@H](O)CC1=O)[C@H](C)C[C@@H]2OC [tacrolimus, Tacrolimus]
[6]; DOCA and tacrolimus 0.3 mg/kg oral gavage daily, first two weeks
  body weight: significant loss of body weight
[6]; tacrolimus 0.3/0.1 oral daily, weeks 2 and 3 vs DOCA-vehicle (p<0.05), FIG. 12
  urinary albumin excretion: significantly attenuated urinary albumin excretion
[6]; tacrolimus dose adjusted from 0.3 mg/kg down to 0.1 mg/kg after two weeks of dosing
  body weight after dose adjustment: reversed the weight loss
